Test results published in ChEMBL document CHEMBL1122930, “Synthesis and pharmacological characterization of 5-(2-dodecylphenyl)-4,6-dithianonanedioic acid and 5-[2-(8-phenyloctyl)phenyl]-4,6-dithianonanedioic acid: prototypes of a novel class of leukotriene antagonists” (J Med Chem, 1985).
Counter-ions that a name gives are not always drawn.

Key:
[1] = tested on: Cavia porcellus; experiment: Antagonistic effect on LTD4 induced change in lung compliance (CDYN) in anesthetized guinea pig, at dose 5 ug/kg, administered intravenously; assay type: functional; conditions: iv
[2] = target: T1, Cysteinyl leukotriene receptor 1 (Cavia porcellus, UniProt Q2NNR5); experiment: Binding constant was determined as affinity to displace [3H]LTD4 from Cysteinyl leukotriene D4 receptor on guinea pig lung membrane; assay type: tissue-based
T1 sequence (Q2NNR5 whole entry): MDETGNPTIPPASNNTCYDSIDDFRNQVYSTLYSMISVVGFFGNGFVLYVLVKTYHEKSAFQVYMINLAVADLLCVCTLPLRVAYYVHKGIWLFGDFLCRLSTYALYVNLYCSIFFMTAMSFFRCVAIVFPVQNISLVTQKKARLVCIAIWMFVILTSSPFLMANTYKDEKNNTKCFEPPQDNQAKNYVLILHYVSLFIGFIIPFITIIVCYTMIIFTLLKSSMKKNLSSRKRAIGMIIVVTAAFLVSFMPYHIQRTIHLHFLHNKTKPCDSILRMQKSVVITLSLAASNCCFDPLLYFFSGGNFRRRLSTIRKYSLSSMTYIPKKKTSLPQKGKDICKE

[3] = target: T2, Cysteinyl leukotriene receptor 1 (Cavia porcellus) (UniProt Q2NNR5); experiment: Dissociation constant towards Cysteinyl leukotriene D4 receptor of guinea pig
T2 sequence (whole entry): T1 sequence (Q2NNR5 whole entry)

[4] = tested on: Cavia porcellus; experiment: Antagonistic effect on LTD4 induced change in air way resistance (RL) in anesthetized guinea pigs, at dose 5 ug/kg, administered intravenously; assay type: functional; conditions: iv
[5] = tested on: Cavia porcellus; experiment: Antagonistic effect on LTD4 induced change in lung compliance (CDYN) in anesthetized guinea pigs, at dose 5 ug/kg, administered intravenously; assay type: functional; conditions: iv
[6] = target: T2, Cysteinyl leukotriene receptor 1 (Cavia porcellus)
[7] = tested on: Cavia porcellus; experiment: Antagonistic effect on LTD4 induced changes in dynamic lung compliance (CDYN) in anesthetized guinea pigs, at dose 5 mg/kg when administered intravenously; assay type: functional; conditions: route intravenous
[8] = target: T2, Cysteinyl leukotriene receptor 1 (Cavia porcellus); remark: listed apart in the source
[9] = tested on: Cavia porcellus; experiment: Antagonistic effect on LTD4 induced change in airway resistance (RL) in anesthetized guinea pigs, at dose 5 mg/kg when administered intravenously; assay type: functional; conditions: route intravenous

Row | SMILES | inhibition in vivo at 0.005 mg/kg [1] | Ki [2] | -Log K B [3] | inhibition in vivo at 0.005 mg/kg [4] | inhibition in vivo at 0.005 mg/kg [5] | -Log K B [6] | inhibition in vivo at 5 mg/kg [7] | -Log K B [8] | inhibition in vivo at 5 mg/kg [9]
1 | CCCCCCCCCCCCc1ccccc1C(SCCC(=O)O)SCCC(=O)O | 83% | 445 nM | 6 | 97% | – | – | – | – | –
2 | O=C(O)CCSC(SCCC(=O)O)c1ccccc1CCCCCCCCc1ccccc1 | – | 245 nM | – | 100% | 95% | 6.7 | – | – | –
3 | CCCc1c(OCC(O)COc2ccc3c(=O)cc(C(=O)O)oc3c2CCC)ccc(C(C)=O)c1O (stereo unspecified) [FPL-55712 SODIUM SALT] | – | – | – | – | – | – | 97% | 6.8 | 97%
